Results from PMC10794144, “A novel antibiotic class targeting the lipopolysaccharide transporter” (Nature, 2024).
In brackets after ≈: the same amount, converted by molar mass.

System: A. baumannii
Experiment: microbe, parasite or virus in culture
Procedure, shortened: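 CLSI broth microdilution (M07/M100); inoculum from 0.5 McFarland suspension diluted in CAMHB; MIC = lowest concentration with no visible growth or where OD600 stops falling.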

**Q.** Which “MIC 80%” value (ROB08701, Study LGC308175) does the source give for `CN1C(=O)[C@H](CCCCN)NC(=O)[C@H](CCCN)NCc2cccnc2Sc2c(Cl)ccc(Cl)c2CNC(=O)[C@@H]1Cc1c[nH]c2ccccc12` [RO7075573] here?
**A.** 0.12 µg/mL (≈ 0.162 µM)

**Q.** What about the “MIC 100%” value (ROB08701, Study LGC308175) of the same molecule?
**A.** 64 µg/mL (≈ 86.5 µM)

**Q.** And the “MIC 80%” value (ROB08701, Study ROC010)?
**A.** 0.25 µg/mL (≈ 0.338 µM)

**Q.** What about the “MIC 100%” value (ROB08701, Study ROC010) of the same molecule?
**A.** 0.5 µg/mL (≈ 0.676 µM)

**Q.** What about the “MIC 80%” value (ROB08701, Study ROC012) of the same molecule?
**A.** 0.12 µg/mL (≈ 0.162 µM)

**Q.** What about the “MIC 100%” value (ROB08701, Study ROC012) of the same molecule?
**A.** 8 µg/mL (≈ 10.8 µM)

**Q.** And the “MIC 80%” value (ROB08702, Study LGC281440)?
**A.** 0.12 µg/mL (≈ 0.162 µM)

**Q.** What about the “MIC 100%” value (ROB08702, Study LGC281440) of the same molecule?
**A.** >64 µg/mL

**Q.** And the “MIC 80%” value (ROB08702, Study LGC282160)?
**A.** 2 µg/mL (≈ 2.7 µM)

**Q.** And the “MIC 100%” value (ROB08702, Study LGC282160)?
**A.** >64 µg/mL

**Q.** And the “MIC 80%” value (ROB08702, Study LGC284879)?
**A.** 0.12 µg/mL (≈ 0.162 µM)

**Q.** What about the “MIC 100%” value (ROB08702, Study LGC284879) of the same molecule?
**A.** >64 µg/mL

**Q.** What about the “MIC 80%” value (ROB08702, Study LGC285582) of the same molecule?
**A.** 0.12 µg/mL (≈ 0.162 µM)

**Q.** What about the “MIC 100%” value (ROB08702, Study LGC285582) of the same molecule?
**A.** >64 µg/mL

**Q.** And the “MIC 80%” value (ROB08702, Study LGC286210)?
**A.** 0.12 µg/mL (≈ 0.162 µM)

**Q.** What about the “MIC 100%” value (ROB08702, Study LGC286210) of the same molecule?
**A.** >64 µg/mL

**Q.** What about the “MIC 80%” value (ROB08702, Study LGC293598) of the same molecule?
**A.** 0.12 µg/mL (≈ 0.162 µM)

**Q.** And the “MIC 100%” value (ROB08702, Study LGC293598)?
**A.** >64 µg/mL

**Q.** And the “MIC 80%” value (ROB08702, Study LGC294355)?
**A.** 0.12 µg/mL (≈ 0.162 µM)

**Q.** And the “MIC 100%” value (ROB08702, Study LGC294355)?
**A.** >64 µg/mL

**Q.** And the “MIC 80%” value (ROB08702, Study LGC295147)?
**A.** 0.12 µg/mL (≈ 0.162 µM)

**Q.** What about the “MIC 100%” value (ROB08702, Study LGC295147) of the same molecule?
**A.** 64 µg/mL (≈ 86.5 µM)

**Q.** And the “MIC 80%” value (ROB08702, Study LGC296813)?
**A.** 0.12 µg/mL (≈ 0.162 µM)

**Q.** What about the “MIC 100%” value (ROB08702, Study LGC296813) of the same molecule?
**A.** 64 µg/mL (≈ 86.5 µM)

**Q.** And the “MIC 80%” value (ROB08702, Study LGC299544)?
**A.** 0.12 µg/mL (≈ 0.162 µM)

**Q.** And the “MIC 100%” value (ROB08702, Study LGC299544)?
**A.** 64 µg/mL (≈ 86.5 µM)

**Q.** What about the “MIC 80%” value (ROB08702, Study LGC301026) of the same molecule?
**A.** 0.12 µg/mL (≈ 0.162 µM)

**Q.** And the “MIC 100%” value (ROB08702, Study LGC301026)?
**A.** 64 µg/mL (≈ 86.5 µM)

**Q.** And the “MIC 80%” value (ROB08702, Study LGC308175)?
**A.** 0.12 µg/mL (≈ 0.162 µM)

**Q.** What about the “MIC 100%” value (ROB08702, Study LGC308175) of the same molecule?
**A.** 64 µg/mL (≈ 86.5 µM)

**Q.** What about the “MIC 80%” value (ROB08702, Study ROC010) of the same molecule?
**A.** 0.25 µg/mL (≈ 0.338 µM)

**Q.** And the “MIC 100%” value (ROB08702, Study ROC010)?
**A.** 32 µg/mL (≈ 43.3 µM)

**Q.** And the “MIC 80%” value (ROB08702, Study ROC012)?
**A.** 0.12 µg/mL (≈ 0.162 µM)

**Q.** And the “MIC 100%” value (ROB08702, Study ROC012)?
**A.** 64 µg/mL (≈ 86.5 µM)

**Q.** What about the “MIC 80%” value (ROB08703, Study LGC281440) of the same molecule?
**A.** 0.25 µg/mL (≈ 0.338 µM)

**Q.** And the “MIC 100%” value (ROB08703, Study LGC281440)?
**A.** 16 µg/mL (≈ 21.6 µM)

**Q.** What about the “MIC 80%” value (ROB08703, Study LGC282160) of the same molecule?
**A.** 0.25 µg/mL (≈ 0.338 µM)

**Q.** And the “MIC 100%” value (ROB08703, Study LGC282160)?
**A.** 64 µg/mL (≈ 86.5 µM)

**Q.** And the “MIC 80%” value (ROB08703, Study LGC284879)?
**A.** 0.5 µg/mL (≈ 0.676 µM)

**Q.** And the “MIC 100%” value (ROB08703, Study LGC284879)?
**A.** >64 µg/mL

**Q.** And the “MIC 80%” value (ROB08703, Study LGC285582)?
**A.** 0.25 µg/mL (≈ 0.338 µM)

**Q.** What about the “MIC 100%” value (ROB08703, Study LGC285582) of the same molecule?
**A.** 64 µg/mL (≈ 86.5 µM)

**Q.** And the “MIC 80%” value (ROB08703, Study LGC286210)?
**A.** 0.25 µg/mL (≈ 0.338 µM)

**Q.** And the “MIC 100%” value (ROB08703, Study LGC286210)?
**A.** 64 µg/mL (≈ 86.5 µM)

**Q.** What about the “MIC 80%” value (ROB08703, Study LGC293598) of the same molecule?
**A.** 0.12 µg/mL (≈ 0.162 µM)

**Q.** What about the “MIC 100%” value (ROB08703, Study LGC293598) of the same molecule?
**A.** >64 µg/mL

**Q.** And the “MIC 80%” value (ROB08703, Study LGC294355)?
**A.** >64 µg/mL

**Q.** What about the “MIC 100%” value (ROB08703, Study LGC294355) of the same molecule?
**A.** >64 µg/mL

**Q.** What about the “MIC 80%” value (ROB08703, Study LGC295147) of the same molecule?
**A.** 0.25 µg/mL (≈ 0.338 µM)

**Q.** What about the “MIC 100%” value (ROB08703, Study LGC295147) of the same molecule?
**A.** 64 µg/mL (≈ 86.5 µM)

**Q.** What about the “MIC 80%” value (ROB08703, Study LGC296813) of the same molecule?
**A.** 0.5 µg/mL (≈ 0.676 µM)

**Q.** And the “MIC 100%” value (ROB08703, Study LGC296813)?
**A.** 64 µg/mL (≈ 86.5 µM)

**Q.** What about the “MIC 80%” value (ROB08703, Study LGC299544) of the same molecule?
**A.** 0.5 µg/mL (≈ 0.676 µM)

**Q.** And the “MIC 100%” value (ROB08703, Study LGC299544)?
**A.** 64 µg/mL (≈ 86.5 µM)

**Q.** And the “MIC 80%” value (ROB08703, Study LGC301026)?
**A.** 0.25 µg/mL (≈ 0.338 µM)

**Q.** What about the “MIC 100%” value (ROB08703, Study LGC301026) of the same molecule?
**A.** 64 µg/mL (≈ 86.5 µM)

**Q.** What about the “MIC 80%” value (ROB08703, Study LGC308175) of the same molecule?
**A.** 0.25 µg/mL (≈ 0.338 µM)

**Q.** What about the “MIC 100%” value (ROB08703, Study LGC308175) of the same molecule?
**A.** 64 µg/mL (≈ 86.5 µM)

**Q.** And the “MIC 80%” value (ROB08703, Study ROC010)?
**A.** 0.5 µg/mL (≈ 0.676 µM)

**Q.** And the “MIC 100%” value (ROB08703, Study ROC010)?
**A.** 0.5 µg/mL (≈ 0.676 µM)

**Q.** What about the “MIC 80%” value (ROB08703, Study ROC012) of the same molecule?
**A.** 0.25 µg/mL (≈ 0.338 µM)

**Q.** And the “MIC 100%” value (ROB08703, Study ROC012)?
**A.** 64 µg/mL (≈ 86.5 µM)

**Q.** And the “MIC 80%” value (ROB08704, Study LGC281440)?
**A.** 0.5 µg/mL (≈ 0.676 µM)

**Q.** What about the “MIC 100%” value (ROB08704, Study LGC281440) of the same molecule?
**A.** 16 µg/mL (≈ 21.6 µM)

**Q.** And the “MIC 80%” value (ROB08704, Study LGC282160)?
**A.** 0.25 µg/mL (≈ 0.338 µM)

**Q.** And the “MIC 100%” value (ROB08704, Study LGC282160)?
**A.** 64 µg/mL (≈ 86.5 µM)

**Q.** And the “MIC 80%” value (ROB08704, Study LGC284879)?
**A.** 0.5 µg/mL (≈ 0.676 µM)

**Q.** And the “MIC 100%” value (ROB08704, Study LGC284879)?
**A.** >64 µg/mL

**Q.** And the “MIC 80%” value (ROB08704, Study LGC285582)?
**A.** 0.25 µg/mL (≈ 0.338 µM)

**Q.** And the “MIC 100%” value (ROB08704, Study LGC285582)?
**A.** 64 µg/mL (≈ 86.5 µM)

**Q.** What about the “MIC 80%” value (ROB08704, Study LGC286210) of the same molecule?
**A.** 0.5 µg/mL (≈ 0.676 µM)

**Q.** And the “MIC 100%” value (ROB08704, Study LGC286210)?
**A.** 32 µg/mL (≈ 43.3 µM)

**Q.** And the “MIC 80%” value (ROB08704, Study LGC293598)?
**A.** 0.5 µg/mL (≈ 0.676 µM)

**Q.** What about the “MIC 100%” value (ROB08704, Study LGC293598) of the same molecule?
**A.** >64 µg/mL

**Q.** What about the “MIC 80%” value (ROB08704, Study LGC294355) of the same molecule?
**A.** 0.5 µg/mL (≈ 0.676 µM)

**Q.** And the “MIC 100%” value (ROB08704, Study LGC294355)?
**A.** >64 µg/mL

**Q.** And the “MIC 80%” value (ROB08704, Study LGC295147)?
**A.** 0.5 µg/mL (≈ 0.676 µM)

**Q.** And the “MIC 100%” value (ROB08704, Study LGC295147)?
**A.** 64 µg/mL (≈ 86.5 µM)

**Q.** And the “MIC 80%” value (ROB08704, Study LGC296813)?
**A.** 0.5 µg/mL (≈ 0.676 µM)

**Q.** And the “MIC 100%” value (ROB08704, Study LGC296813)?
**A.** 32 µg/mL (≈ 43.3 µM)

**Q.** And the “MIC 80%” value (ROB08704, Study LGC299544)?
**A.** 0.5 µg/mL (≈ 0.676 µM)

**Q.** And the “MIC 100%” value (ROB08704, Study LGC299544)?
**A.** 64 µg/mL (≈ 86.5 µM)

**Q.** What about the “MIC 80%” value (ROB08704, Study LGC301026) of the same molecule?
**A.** 0.5 µg/mL (≈ 0.676 µM)

**Q.** What about the “MIC 100%” value (ROB08704, Study LGC301026) of the same molecule?
**A.** 64 µg/mL (≈ 86.5 µM)

**Q.** What about the “MIC 80%” value (ROB08704, Study LGC308175) of the same molecule?
**A.** 0.25 µg/mL (≈ 0.338 µM)

**Q.** What about the “MIC 100%” value (ROB08704, Study LGC308175) of the same molecule?
**A.** 32 µg/mL (≈ 43.3 µM)
